One may read the EC50 as the concentration at which the effect is half-maximal.

Test [1] has as its target T1, Full-length (FL)-PRMT5-MEP50 enzyme complex (Homo sapiens, UniProt O14744).
T1 construct: Full-length (FL)-PRMT5-MEP50 enzyme complex (recombinant proteins from baculovirus-transfected Sf21 cells: FL-PRMT5; MW=73837 kDa and FL-MEP50; MW=38614); made in house; host or cells: baculovirus-transfected Sf21 cells
Kind of test: PRMT5-MEP50 Enzyme Methylation Assay (Version A). Format: biochemical. The method, boiled down:
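Compound was pre-incubated with enzyme for 60 min, then reacted 150 min at 37° C. at final 1.0 nM PRMT5-MEP50, 15 μM SAM and 75 nM biotinylated H4R3(Me1) peptide, in 50 mM Bicine pH 8.0 with 1% DMSO. SAMDI mass-spectrometric readout of Me1→Me2 conversion. EC50 from 4- or 7-parameter regression.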

Test [2] relates to symmetric dimethylation of arginine (SDMA) of PRMT5 substrates in MCF-7 cells. Kind of test: PRMT5 Cell Target Engagement (TE) Assay. Format: cell-based. Conditions: Homo sapiens, MCF7, 72 h, 3 days treatment, SDMA high content imaging. The method, boiled down:
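Readout is single-cell nuclear symmetric-dimethylarginine immunofluorescence (Alexa488), normalized to DMSO-treated cells. Compounds were applied to MCF-7 cells for 3 days at 37 °C, top concentration 10000 nM in 1:3 steps over ten points; curves fitted with 4-parameter robust fit.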

[3] abbreviates: second value of 7 parameter biphasic fit, read-out: Enzyme Methylation Assay Version A (EC50 2).
Where [4] appears, read: single EC50 = 4 parameter single site sigmoidal fit, EC50 1 = first value of 7 parameter biphasic fit, read-out: Enzyme Methylation Assay Version A (EC50 or EC50 1).

Where two headings read alike, the source gives them in different places.

T1 sequence (O14744 whole entry): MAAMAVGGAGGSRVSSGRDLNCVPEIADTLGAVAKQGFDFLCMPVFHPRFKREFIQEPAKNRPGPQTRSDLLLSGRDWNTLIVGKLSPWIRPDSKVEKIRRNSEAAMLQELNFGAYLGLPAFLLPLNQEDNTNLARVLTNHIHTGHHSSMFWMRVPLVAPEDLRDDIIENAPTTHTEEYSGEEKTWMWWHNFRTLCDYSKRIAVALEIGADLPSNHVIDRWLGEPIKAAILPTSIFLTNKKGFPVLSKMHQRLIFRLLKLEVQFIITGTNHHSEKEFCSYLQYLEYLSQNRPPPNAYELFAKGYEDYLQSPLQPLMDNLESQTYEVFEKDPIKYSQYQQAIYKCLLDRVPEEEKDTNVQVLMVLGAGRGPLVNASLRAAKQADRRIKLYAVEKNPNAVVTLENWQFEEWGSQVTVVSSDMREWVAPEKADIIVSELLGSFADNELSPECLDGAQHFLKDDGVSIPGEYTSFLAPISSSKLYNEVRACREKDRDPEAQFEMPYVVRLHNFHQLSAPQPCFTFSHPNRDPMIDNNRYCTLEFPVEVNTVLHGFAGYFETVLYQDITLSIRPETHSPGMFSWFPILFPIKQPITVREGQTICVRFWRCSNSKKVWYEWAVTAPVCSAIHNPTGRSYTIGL
T1 sequence (Q9BQA1 whole entry partner): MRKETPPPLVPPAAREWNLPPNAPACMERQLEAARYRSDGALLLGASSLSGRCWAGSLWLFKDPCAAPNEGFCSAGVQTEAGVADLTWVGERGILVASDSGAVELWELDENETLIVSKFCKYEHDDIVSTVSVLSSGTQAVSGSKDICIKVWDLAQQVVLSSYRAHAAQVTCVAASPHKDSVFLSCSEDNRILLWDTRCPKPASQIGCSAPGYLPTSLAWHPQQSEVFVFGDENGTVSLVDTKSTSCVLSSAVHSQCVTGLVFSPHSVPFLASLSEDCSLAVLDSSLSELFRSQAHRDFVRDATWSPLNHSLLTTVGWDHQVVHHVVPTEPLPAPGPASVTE

In the case of `Cc1ccnc2nc(C(=O)N3CC[C@]4(Cc5ccccc5CN4)[C@H](O)C3)cn12` [Example 124, [(3R,3′R)-3′-hydroxy-1,4-dihydro-1′H,2H-spiro[isoquinoline-3,4′-piperidin]-1′-yl](5-methylimidazo[1,2-a]pyrimidin-2-yl)methanone], the EC50 in test [1] (setting [3]) is 2420 nM; in test [1] (setting [4]), 8.49 nM; in test [2], 3320 nM.
As for `COc1cc2nc(C(=O)N3CC[C@]4(Cc5ccccc5CN4)[C@H](O)C3)cn2cc1Br` [Example 125], the results for the EC50 in test [1] (setting [3]), in test [1] (setting [4]) and in test [2] were 298 nM, 0.515 nM and 13.8 nM, respectively.
The matching figures for `Cc1cn2cc(C(=O)N3CC[C@]4(Cc5ccccc5CN4)[C@H](O)C3)nc2nc1C` [Example 126, (6,7-dimethylimidazo[1,2-a]pyrimidin-2-yl)[(3R,3′R)-3′-hydroxy-1,4-dihydro-1′H,2H-spiro[isoquinoline-3,4′-piperidin]-1′-yl]methanone]: 5010 nM, 7.15 nM and 399 nM.
For `Cc1cnc2nc(C(=O)N3CC[C@]4(Cc5ccccc5CN4)[C@H](O)C3)cn2c1C` [Example 127, (5,6-dimethylimidazo[1,2-a]pyrimidin-2-yl)[(3R,3′R)-3′^-hydroxy-1,4-dihydro-1′H,2H-spiro[isoquinoline-3,4′-piperidin]-1′-yl]methanone], the values for the EC50 in test [1] (setting [3]), in test [1] (setting [4]) and in test [2] were 34300 nM, 61.7 nM and 3950 nM, respectively.
The matching figures for `COc1nc2nc(C(=O)N3CC[C@]4(Cc5ccccc5CN4)[C@H](O)C3)cn2cc1C` [Example 128, [(3R,3′R)-3′-hydroxy-1,4-dihydro-1′H,2H-spiro[isoquinoline-3,4′-piperidin]-1′-yl](7-methoxy-6-methylimidazo[1,2-a]pyrimidin-2-yl)methanone]: 2690 nM, 5.33 nM and 195 nM.
Consider `O=C(c1cn2cc(O)cnc2n1)N1CC[C@]2(Cc3ccccc3CN2)[C@H](O)C1` [Example 129, [(3R,3′R)-3′-hydroxy-1,4-dihydro-1′H,2H-spiro[isoquinoline-3,4′-piperidin]-1′-yl](6-hydroxyimidazo[1,2-a]pyrimidin-2-yl)methanone], for which the EC50 in test [1] (setting [4]) was 836 nM; in test [2] it was no less than 10000 nM.
Consider `O=C(c1cn2cc(Br)c(O)cc2n1)N1CC[C@]2(Cc3ccccc3CN2)[C@H](O)C1` [Example 130, (6-bromo-7-hydroxy imidazo[1,2-a]pyridin-2-yl)[(3R,3′R)-3′-hydroxy-1,4-dihydro-1′H,2H-spiro[isoquinoline-3,4′-piperidin]-1′-yl]methanone], for which the EC50 in test [1] (setting [3]) worked out at 19700 nM; in test [1] (setting [4]), 21.4 nM; in test [2] it was 9600 nM.
For `Cc1cn2cc(C(=O)N3CC[C@]4(Cc5ccccc5CN4)[C@H](O)C3)nc2nc1O` [Example 131, 2-{[(3R,3′R)-3′-hydroxy-1,4-dihydro-1′H,2H-spiro[isoquinoline-3,4′-piperidin]-1′-yl]carbonyl}-6-methylimidazo[1,2-a]pyrimidin-7(1H)-one] the same measures were 74100 nM, 70.8 nM and no less than 10000 nM.
For `COC(C)c1cc(C2CC2)cn2cc(C(=O)N3CC[C@]4(Cc5ccccc5CN4)[C@H](O)C3)nc12` (stereo partly drawn) [Example 132, [6-cyclopropyl-8-(1-methoxyethyl)imidazo[1,2-a]pyridin-2-yl][(3R,3′R)-3′-hydroxy-1,4-dihydro-1′H,2H-spiro[isoquinoline-3,4′-piperidin]-1′-yl]methanone] the same measures were 123 nM, 0.244 nM and 6.61 nM.
The matching figures for `CC(C#N)c1cnc2nc(C(=O)N3CC[C@]4(Cc5ccccc5CN4)[C@H](O)C3)cn2c1` (stereo partly drawn) [Example 133, 2-(2-{[(3R,3′R)-3′-hydroxy-1,4-dihydro-1′H,2H-spiro[isoquinoline-3,4′-piperidin]-1′-yl]carbonyl}imidazo[1,2-a]pyrimidin-6-yl)propanenitrile]: 16.2 nM, 3.79 nM and 77.4 nM.
As for `O=C(c1cn2cc(C3CC3)ncc2n1)N1CC[C@]2(Cc3ccccc3CN2)[C@H](O)C1` [Example 134, (6-cyclopropylimidazo[1,2-a]pyrazin-2-yl)[(3R,3′R)-3′-hydroxy-1,4-dihydro-1′H,2H-spiro[isoquinoline-3,4′-piperidin]-1′-yl]methanone], the values for the EC50 in test [1] (setting [4]) and in test [2] were 143 nM and 184 nM, respectively.
For `O=C(c1cn2cc(Br)c(C3CC3)nc2n1)N1CC[C@]2(Cc3ccccc3CN2)[C@H](O)C1` [Example 135, (6-bromo-7-cyclopropylimidazo[1,2-a]pyrimidin-2-yl)[(3R,3′R)-3′-hydroxy-1,4-dihydro-1′H,2H-spiro[isoquinoline-3,4′-piperidin]-1′-yl]methanone] the same measures were 10.6 nM and 6.86 nM.
For `Cc1cn2cc(C(=O)N3CC[C@]4(Cc5ccccc5CN4)[C@H](O)C3)nc2c(Br)n1` [Example 138, (8-bromo-6-methylimidazo[1,2-a]pyrazin-2-yl)[(3R,3′R)-3′-hydroxy-1,4-dihydro-1′H,2H-spiro[isoquinoline-3,4′-piperidin]-1′-yl]methanone] the same measures were 202 nM and 322 nM.
For `Cc1nc2ncc(C(=O)N3CC[C@]4(Cc5ccccc5CN4)[C@H](O)C3)n2cc1Br` [Example 140, (6-bromo-7-methylimidazo[1,2-a]pyrimidin-3-yl)[(3R,3′R)-3′-hydroxy-1,4-dihydro-1′H,2H-spiro[isoquinoline-3,4′-piperidin]-1′-yl]methanone] the same measures were 1390 nM and 2090 nM.
Take `Cc1c(Br)cnc2ncc(C(=O)N3CC[C@]4(Cc5ccccc5CN4)[C@H](O)C3)n12` [Example 141, (6-bromo-5-methylimidazo[1,2-a]pyrimidin-3-yl)[(3R,3′R)-3′-hydroxy-1,4-dihydro-1′H,2H-spiro[isoquinoline-3,4′-piperidin]-1′-yl]methanone]: the EC50 was 3720 nM in test [1] (setting [3]), 101 nM in test [1] (setting [4]) and 4380 nM in test [2].
For `O=C(c1ccc2c(O)c(CC(F)(F)F)cnc2c1)N1CC[C@]2(Cc3ccccc3CN2)[C@H](O)C1` [Example 153, ((3R,3′R)-3′-hydroxy-1,4-dihydro-2H-spiro[isoquinoline-3,4′-piperidin]-1′-yl)(4-hydroxy-3-(2,2,2-trifluoroethyl)quinolin-7-yl)methanone] the same measures were 2950 nM, 4.3 nM and 414 nM.
For `O=C(c1cn2cc(C(F)(F)F)cc(C3CCOC3)c2n1)N1CC[C@]2(Cc3ccccc3CN2)[C@H](O)C1` (stereo partly drawn) [Example 154, ((3R,3′R)-3′-hydroxy-2,4-dihydro-1H-spiro[isoquinoline-3,4′-piperidin]-1′-yl)(8-(tetrahydrofuran-3-yl)-6-(trifluoromethyl)imidazo[1,2-a]pyridin-2-yl)methanone] the same measures were 266 nM, 0.802 nM and 4.42 nM.
The matching figures for `O=C(c1cnc2ncc(C(F)(F)F)cn12)N1CC[C@]2(Cc3ccccc3CN2)[C@H](O)C1` [Example 168, [(3R,3′R)-3′-hydroxy-1,4-dihydro-1′H,2H-spiro[isoquinoline-3,4′-piperidin]-1′-yl][6-(trifluoromethyl)imidazo[1,2-a]pyrimidin-3-yl]methanone]: 385 nM, 2.56 nM and 50.2 nM.

Values taken from patent US12441730B2, “PRMT5 inhibitors” (Merck Sharp & Dohme LLC, priority 2019, dated 2025).
